A short description of one data set: physchem. To be noted: 30% aqueous dipotassium hydrogen phosphate.
The conditions of data set [1]: 30% aqueous dipotassium hydrogen phosphate.
For data set [2] the following is noted: cited from earlier work.

In brackets after ≈: the same amount, converted by molar mass. Where two headings read alike, the source gives them in different places.

The solubility is the dissolved amount per volume that the medium holds. Take `C/C=C/C=C/C(=O)O` [sorbic acid]: the figures for the solubility (in “physchem”; in data set [1]) were 79 mg/mL (≈ 705 mM) and 15.1 grams per 100 ml of a salt sol, respectively. For the same compound, the solubility in water result in data set [2] (100° C) is listed as “approximately 3%”; in data set [2] (in words), “low solubility”.

Source of the values: patent US3997598A, “Process for purifying sorbic acid” (Hoechst Aktiengesellschaft, priority 1973, dated 1976).
